One assay relates to M. furfur 7982. The assay can be described thus: Fractional Inhibitor Concentration (FIC) test of chelator combined with ZPT. In kind it is cell-based. Particulars: combination with ZPT (from 12.5ppm); chelator from 400ppm or 800ppm; 33°C, 2 days; average of duplicate plates. From the text:
Fractional Inhibitor Concentration (FIC) is a conventional methodology for evaluating antimicrobial interactions. In an embodiment of the present invention, an FIC is used to determine combinatorial effects of two chemicals on anti-Malassezia activity in a tissue culture setting.
• 1. Each FIC assay is run in duplicate. • 2. Low levels of M. furfur 7982 cells are inoculated into each well of a 96 well plate. • 3. Chemical #1 (in our assays, this is always ZPT) is titrated (2x concentration reductions) from right to left across each row of the plate, starting at 12.5ppm final concentration and ending at 0ppm. • 4. […] Plates are incubated at 33°C, 60%RH for 2 days with agitation. • 6. Optical densities (OD's) are then determined using a spectrophotometer.
1. […]. The lowest concentration value of chemical #1, both by itself and with the lowest concentration of chemical #1 which boosts chemical #2's potency, that inhibit growth are determined (see Appendix 1). 4. Likewise, the lowest concentration of chemical #2, both by itself and with the lowest concentration of chemical #2 that boosts chemical #1's potency, that inhibit growth are determined (see Appendix 1). 5. The FIC value for the duplicate plates is determined using the calculations below: FIC = (lowest inhibitory dose of Chemical#1 by itself)/(inhibitory dose of Chemical#1 in a well that also contains Chemical#2also contains Chemical#1) + (lowest inhibitory dose of Chemical#2by itselflowest)/(lowest inhibitory dose of Chemical#2in a well that) [formula] ave FIC VALUE = (FIC value for plate 1+FIC value for plate2); 2 [formula] 6. The average FIC value is then determined, and the combinatorial effect of the two chemicals is classified according to the chart below: […]

The next assay relates to Malassezia furfur. Nature of the assay: Intrinsic anti-Malassezia potency, growth inhibition by optical density. In kind it is cell-based. The protocol: To measure the growth inhibition properties of test materials against Malassezia, we carried out the following protocol.
Starting cultures are prepared by incubating with shaking at 31°. Cells (5 ml of culture) are collected by centrifugation and suspended in 50 ml fresh mDixon medium. […] The plates are shaken vigorously on a Heidolph Titramax 100 overnight at 31°. To increase the humidity, water-soaked cotton batting is placed over the plates.
As a control, the optical density of untreated M. furfur is measured after overnight incubation. As another control, the optical density of the starting culture is measured. The difference between these optical densities represents the amount of growth of M. furfur.

[1] abbreviates: Malassezia furfur, mDixon medium, overnight at 31°, optical density 600 nm, read-out: Intrinsic Anti-Malassezia Potency (IC50).
The mark [2] stands for this setting: Malassezia furfur, read-out: Intrinsic Anti-Malassezia Potency (IC50, µM).

Counter-ions that a name gives are not always drawn. Like-named read-outs stand apart in the source and are kept apart here.

Turning to `O=C1c2cccc3cccc(c23)C(=O)N1O` [N,N-Naphthaloylhydroxylamine], the FIC in the assay with M. furfur 7982 is recorded as 0.8.
Consider `Oc1c(I)cc(Cl)c2cccnc12` [5-Chloro-8-hydroxy-7-iodoquinoline], for which the IC50 (in general, the midpoint of a concentration-inhibition curve) in the assay on Malassezia furfur (setting [1]) turned out to be 65.5 µM.
In the case of `NCCc1ccccn1` [2-(2-aminoethyl)-pyridine], the IC50 in the assay with Malassezia furfur (setting [1]) was more than 500 µM.
The same measure, in the same setting: the value for `O=c1cc(CO)occ1O` [kojic acid] was 704 µM.
As to `c1cnc2c(c1)ccc1cccnc12` [1,10-Phenanthroline], the IC50 in the assay with Malassezia furfur (setting [1]) stood at 166 µM.
With `Oc1ccc(N=Nc2nccs2)c(O)c1` [4-(2-thiazolylazo)-resorcinol], the IC50 with Malassezia furfur (setting [1]) is more than 900 µM.
On to `CCC(NCCNC(CC)C(=O)O)C(=O)O` (stereo not shown) [Ethylenediiminodi-2-butanoic acid], for which the IC50 in the assay on Malassezia furfur (setting [2]) was more than 500 µM.
Turning to `NCCC(=O)N[C@@H](Cc1c[nH]cn1)C(=O)O` [beta-Alanyl-L-histidine (L-Carnosine), beta-Alanyl-L-histidine], the IC50 in the assay with Malassezia furfur (setting [1]) was more than 500 µM.
For the molecule “N-Hydroxy-6-octyloxypyridine-2(1H)one, zinc salt [HP-100 Zn]”, the FIC in the assay with M. furfur 7982 is listed as 0.7.
For the molecule `CC(C)c1cccc(O)c(=O)c1` [1-Hydroxy-4-(1-methylethyl)cyclohepta-3,5,7-trien-2-one], the IC50 with Malassezia furfur (setting [2]) was found to be 65 µM.
Take `CCCCCCCCOc1cccc(=O)n1O` [HP-101, N-Hydroxy-6-octyloxypyridine-2(1H)one, ethanolamine salt]: the IC50 with Malassezia furfur (setting [1]) turned out to be 54.6 µM. Also, the FIC in the assay with M. furfur 7982 is on record as 0.62.
`c1ccc(CN(CCN(Cc2ccccn2)Cc2ccccn2)Cc2ccccn2)nc1` [N,N,N',N-tetrakis(2-pyridylmethyl) ethylenediamine]: the IC50 in the assay with Malassezia furfur (setting [1]) was 71 µM.
`Cc1c(O)c(=O)ccn1C` [3-Hydroxy-1,2-dimethyl-4(1H)-pyridone]: the half-maximal inhibitory concentration (IC50) in the assay on Malassezia furfur (setting [1]) is 719 µM.
With `O=C(O)CN(CCO)CCO` [N,N-Bis(2-hydroxyethyl)glycine (Bicine), N,N-Bis(2-hydroxyethyl)glycine], the IC50 in the assay with Malassezia furfur (setting [1]) was more than 500 µM.
Consider `N[C@@H](COP(=O)(O)O)C(=O)O` [L-2-Amino-3-phosphopropanoic acid], for which, in the assay on Malassezia furfur (setting [2]), the IC50 is more than 500 µM.
For the molecule `O=C(O)CN(CC(=O)O)[C@@H]1CCCC[C@H]1N(CC(=O)O)CC(=O)O` (relative stereo) [trans-1,2-Cyclohexylenedinitrilotetraacetic acid], the IC50 in the assay on Malassezia furfur (setting [2]) is 500 µM.
In the case of `C1CNCCNCCNCCNCCNCCN1` [1,4,7,10,13,16-Hexaazacyclooctadecane], the IC50 in the assay on Malassezia furfur (setting [1]) was more than 500 µM.
Take `S=C(N=Nc1ccccc1)NNc1ccccc1` [1,5-Diphenyl-1,2,4,5-tetraazapent-1-en-3-thione]: the IC50 in the assay with Malassezia furfur (setting [1]) was 62.5 µM.
Consider `Oc1ccc2ccccc2c1N=Nc1nccs1` [1-(2-Thiazoylazo)-2-naphthol], for which the IC50 in the assay on Malassezia furfur (setting [1]) is 250 µM.
For `O=C(O)CN(CCN(CC(=O)O)CC(=O)O)CC(=O)O` [Ethylenediaminetetraacetic acid (EDTA), Ethylenediaminetetraacetic acid], the IC50 in the assay with Malassezia furfur (setting [2]) is more than 500 µM. Besides, the “anti-fungal effectiveness (in words)” value with Malassezia furfur (comment on Table 1 data) is recorded as “not to be effective”.
On to `Oc1c(Cl)cc(Cl)c2cccnc12` [5,7-dichloro-8-hydroxyquinoline], for which, in the assay with Malassezia furfur (setting [1]), the half-inhibitory concentration (IC50) is 23.4 µM.
In the case of Benzohydroxamic acid, Zinc Salt, in the assay on M. furfur 7982, the FIC stood at 0.3.
For the molecule Thiomaltol, Zinc salt, the FIC in the assay on M. furfur 7982 is recorded as 0.5.
With `Oc1cccc2cccnc12` [8-hydroxyquinoline], the half-maximal inhibitory concentration (IC50) with Malassezia furfur (setting [1]) is 138 µM.
Same read-out and setting: the value for `O=C(O)CN1CCCN(CC(=O)O)CCN(CC(=O)O)CCCN(CC(=O)O)CC1` [1,4,8,11-Tetraazacyclotetradecane-N,N',N",N'''-tetraacetic acid] was more than 500 µM.
Same read-out and setting: the value for `c1ccc(-c2cccc(-c3ccccn3)n2)nc1` [2,2':6',2"-terpyridine] was 86 µM; that for `Cc1occc(=O)c1O` [maltol] was 793 µM.
The same measure, in the same setting: the value for `Cc1ccc2ccc3ccc(C)nc3c2n1` [2,9-dimethyl-1,10-phenanthroline] was more than 480 µM.
Regarding Maltol, Zinc salt, the FIC in the assay on M. furfur 7982 was 0.1.
Consider “1,2-Dimethyl-3-hydroxy-4-pyridone, Zinc salt”, for which, in the assay with M. furfur 7982, the FIC was 0.5.
As to “zinc salt of 1-hydroxy-2-pyridinethione [Zinc Pyrithione]”, the IC50 with Malassezia furfur (mDixon medium, overnight at 31°, optical density 600 nm, read-out: Intrinsic Anti-Malassezia Potency (IC50)) was 15 µM.
In the case of `Cc1occc(=S)c1O` [Thiomaltol], the FIC in the assay on M. furfur 7982 is recorded as 0.8.

Values taken from patent publication EP2632470B1 (priority 2010, dated 2012).
